Assay results taken from ChEMBL document CHEMBL3352801, “Synthesis and lipid-lowering evaluation of 3-methyl-1H-purine-2,6-dione derivatives as potent and orally available anti-obesity agents” (Eur J Med Chem, 2014).

Key:
Mus musculus [1] = assay: Antiobesity activity in diet-induced obese C57Bl/6 mouse assessed as increase in HDL level at 20 mg/kg/day, po for 4 weeks administered with high-fat diet (reference value: 1.02 +/- 0.13 mM); type: functional
Mus musculus [2] = assay: Toxicity in diet-induced obese C57Bl/6 mouse assessed as change in AST level at 20 mg/kg/day, po for 4 weeks administered with high-fat diet (reference value: 128.00 +/- 20.59 U/L); type: organism-based; design: route oral; details: in vivo, 672 h
Mus musculus [3] = assay: Antiobesity activity in diet-induced obese C57Bl/6 mouse assessed as reduction in HOMA-IR value at 50 mg/kg/day, po for 4 weeks administered with high-fat diet (reference value: 0.94 +/- 0.23 no_unit); type: functional
[4] = Cmax in Sprague-Dawley rat at 5 mg/kg, iv; type: ADME, organism-based; design: dose 5 mg/kg, route intravenous; details: in vivo
Mus musculus [5] = assay: Antiobesity activity in diet-induced obese C57Bl/6 mouse assessed as change in insulin level at 20 mg/kg/day, po for 4 weeks administered with high-fat diet (reference value: 4.31 +/- .82 mU); type: functional
[6] = Half life in Sprague-Dawley rat at 20 mg/kg, po; type: ADME, organism-based; design: dose 20 mg/kg, route oral; details: in vivo
Rattus norvegicus = assay: Volume of distribution in Sprague-Dawley rat at 20 mg/kg, po; type: ADME, organism-based; design: dose 20 mg/kg, route oral; details: in vivo
Mus musculus [7] = assay: Antiobesity activity in diet-induced obese C57Bl/6 mouse assessed as loss of liver weight at 150 mg/kg/day, po for 4 weeks administered with high-fat diet; type: functional
Mus musculus [8] = assay: Antiobesity activity in diet-induced obese C57Bl/6 mouse assessed as reduction in HOMA-IR value at 20 mg/kg/day, po for 4 weeks administered with high-fat diet (reference value: 0.94 +/- 0.23 no_unit); type: functional
[9] = Total clearance in Sprague-Dawley rat at 20 mg/kg, po; type: ADME, organism-based; design: dose 20 mg/kg, route oral; details: in vivo
Mus musculus [10] = assay: Antiobesity activity in diet-induced obese C57Bl/6 mouse assessed as reduction in FFA level at 50 mg/kg/day, po for 4 weeks administered with high-fat diet (reference value: 25.07 +/- 3.49 ng/L); type: functional
Mus musculus [11] = assay: Antiobesity activity in diet-induced obese C57Bl/6 mouse assessed as reduction in fasting blood glucose at 20 mg/kg/day, po for 4 weeks administered with high-fat diet (reference value: 4.88 +/- 0.75 mM); type: functional
Mus musculus [12] = assay: Antiobesity activity in diet-induced obese C57Bl/6 mouse assessed as reduction in body weight at 20 mg/kg/day, po for 4 weeks administered with high-fat diet; type: functional; design: scale not given: the % may be the effect or the level left
Mus musculus [13] = assay: Antiobesity activity in diet-induced obese C57Bl/6 mouse assessed as reduction in FFA level at 20 mg/kg/day, po for 4 weeks administered with high-fat diet (reference value: 25.07 +/- 3.49 ng/L); type: functional
Mus musculus [14] = assay: Antiobesity activity in diet-induced obese C57Bl/6 mouse assessed as reduction in hepatic triglyceride level at 50 mg/kg/day, po for 4 weeks administered with high-fat diet by Oil Red O staining-based histological method; type: functional; design: scale not given: the % may be the effect or the level left
Mus musculus [15] = assay: Antiobesity activity in diet-induced obese C57Bl/6 mouse assessed as reduction in triglyceride level at 20 mg/kg/day, po for 4 weeks administered with high-fat diet (reference value: 0.96 +/- 0.14 mM); type: functional
Mus musculus [16] = assay: Antiobesity activity in diet-induced obese C57Bl/6 mouse assessed as loss of liver weight at 50 mg/kg/day, po for 4 weeks administered with high-fat diet; type: functional
[17] = Tmax in Sprague-Dawley rat at 5 mg/kg, iv; type: ADME, organism-based; design: dose 5 mg/kg, route intravenous; details: in vivo
[18] = Volume of distribution in Sprague-Dawley rat at 5 mg/kg, iv; type: ADME, organism-based; design: dose 5 mg/kg, route intravenous; details: in vivo
Mus musculus [19] = assay: Antiobesity activity in diet-induced obese C57Bl/6 mouse assessed as change in insulin level at 50 mg/kg/day, po for 4 weeks administered with high-fat diet (reference value: 4.31 +/- .82 mU); type: functional
Mus musculus [20] = assay: Antiobesity activity in diet-induced obese C57Bl/6 mouse assessed as increase in HDL level at 50 mg/kg/day, po for 4 weeks administered with high-fat diet (reference value: 1.02 +/- 0.13 mM); type: functional
[21] = Tmax in Sprague-Dawley rat at 20 mg/kg, po; type: ADME, organism-based; design: dose 20 mg/kg, route oral; details: in vivo
Mus musculus [22] = assay: Toxicity in diet-induced obese C57Bl/6 mouse assessed as change in ALT level at 50 mg/kg/day, po for 4 weeks administered with high-fat diet (reference value: 29.6 +/- 8.29 U/L); type: organism-based; design: route oral; details: in vivo, 672 h
Mus musculus [23] = assay: Antiobesity activity in diet-induced obese C57Bl/6 mouse assessed as reduction in triglyceride level at 50 mg/kg/day, po for 4 weeks administered with high-fat diet (reference value: 0.96 +/- 0.14 mM); type: functional
[24] = Half life in Sprague-Dawley rat at 5 mg/kg, iv; type: ADME, organism-based; design: dose 5 mg/kg, route intravenous; details: in vivo
Mus musculus [25] = assay: Antiobesity activity in diet-induced obese C57Bl/6 mouse assessed as loss of liver weight at 20 mg/kg/day, po for 4 weeks administered with high-fat diet; type: functional
[26] = AUC (0 to t) in Sprague-Dawley rat at 20 mg/kg, po; type: ADME, organism-based; design: dose 20 mg/kg, route oral; details: plasma
[27] = AUC (0 to t) in Sprague-Dawley rat at 5 mg/kg, iv; type: ADME, organism-based; design: dose 5 mg/kg, route intravenous; details: plasma
[28] = Oral bioavailability in Sprague-Dawley rat at 20 mg/kg; type: ADME, organism-based; details: in vivo
Mus musculus [29] = assay: Antiobesity activity in diet-induced obese C57Bl/6 mouse assessed as reduction in LDL level at 20 mg/kg/day, po for 4 weeks administered with high-fat diet (reference value: 0.13 +/- 0.02 mM); type: functional
Mus musculus [30] = assay: Toxicity in diet-induced obese C57Bl/6 mouse assessed as change in AST level at 50 mg/kg/day, po for 4 weeks administered with high-fat diet (reference value: 128.00 +/- 20.59 U/L); type: organism-based; design: route oral; details: in vivo, 672 h
Mus musculus [31] = assay: Antiobesity activity in diet-induced obese C57Bl/6 mouse assessed as loss of epididymal fat mass at 150 mg/kg/day, po for 4 weeks administered with high-fat diet; type: functional
Mus musculus [32] = assay: Toxicity in diet-induced obese C57Bl/6 mouse assessed as change in food intake at 20 mg/kg/day, po for 4 weeks administered with high-fat diet; type: organism-based; design: route oral; details: in vivo, 672 h
[33] = Cmax in Sprague-Dawley rat at 20 mg/kg, po; type: ADME, organism-based; design: dose 20 mg/kg, route oral; details: in vivo
Mus musculus [34] = assay: Antiobesity activity in diet-induced obese C57Bl/6 mouse assessed as loss of epididymal fat mass at 50 mg/kg/day, po for 4 weeks administered with high-fat diet; type: functional
Mus musculus [35] = assay: Antiobesity activity in diet-induced obese C57Bl/6 mouse assessed as reduction in body weight at 50 mg/kg/day, po for 4 weeks administered with high-fat diet; type: functional; design: scale not given: the % may be the effect or the level left
Mus musculus [36] = assay: Antiobesity activity in diet-induced obese C57Bl/6 mouse assessed as loss of epididymal fat mass at 20 mg/kg/day, po for 4 weeks administered with high-fat diet; type: functional
Mus musculus [37] = assay: Antiobesity activity in diet-induced obese C57Bl/6 mouse assessed as reduction in hepatic triglyceride level at 20 mg/kg/day, po for 4 weeks administered with high-fat diet by Oil Red O staining-based histological method; type: functional; design: scale not given: the % may be the effect or the level left
Mus musculus [38] = assay: Antiobesity activity in diet-induced obese C57Bl/6 mouse assessed as reduction in LDL level at 50 mg/kg/day, po for 4 weeks administered with high-fat diet (reference value: 0.13 +/- 0.02 mM); type: functional
[39] = Solubility of the compound at room temperature; type: physicochemical
[40] = Total clearance in Sprague-Dawley rat at 5 mg/kg, iv; type: ADME, organism-based; design: dose 5 mg/kg, route intravenous; details: in vivo
Mus musculus [41] = assay: Toxicity in diet-induced obese C57Bl/6 mouse assessed as change in ALT level at 20 mg/kg/day, po for 4 weeks administered with high-fat diet (reference value: 29.6 +/- 8.29 U/L); type: organism-based; design: route oral; details: in vivo, 672 h
Mus musculus [42] = assay: Antiobesity activity in diet-induced obese C57Bl/6 mouse assessed as reduction in fasting blood glucose at 50 mg/kg/day, po for 4 weeks administered with high-fat diet (reference value: 4.88 +/- 0.75 mM); type: functional

Question: Which results are given for `CCn1c(-c2ccc(OCCN(C)c3ccccn3)cc2)nc2c1c(=O)n(Cc1ccccc1C#N)c(=O)n2C.Cl`?
Answer: Activity (Mus musculus [1]): 1.31 mM; Activity (Mus musculus [2]): 125.71 U/L; Activity (Mus musculus [3]): 1.59; Cmax [4]: 1740 ng/mL; Activity (Mus musculus [5]): 7.48 mU; half-life [6]: 6.97 h; Vd (Rattus norvegicus): 67.208 L/kg; Activity (Mus musculus [7]): 22%; Activity (Mus musculus [8]): 2.98; CL/F [9]: 139 mL/min/kg; Activity (Mus musculus [10]): 25.73 ng/L; Activity (Mus musculus [11]): 8.42 mM; Activity (Mus musculus [12]): 12.86%; Activity (Mus musculus [13]): 26.8 ng/L; Activity (Mus musculus [14]): 21.59%; Activity (Mus musculus [15]): 1.25 mM; Activity (Mus musculus [16]): 22.67%; Tmax [17]: 4.98 min; Vd [18]: 23.6 L/kg; Activity (Mus musculus [19]): 4.76 mU; Activity (Mus musculus [20]): 1.38 mM; Tmax [21]: 2.79 h; Activity (Mus musculus [22]): 18.86 U/L; Activity (Mus musculus [23]): 0.94 mM; half-life [24]: 5.82 h; Activity (Mus musculus [25]): 20%; AUC(0-t) [26]: 4190 ng·h/mL; AUC(0-t) [27]: 1780 ng·h/mL; bioavailability [28]: 58.9%; Activity (Mus musculus [29]): 0.22 mM; Activity (Mus musculus [30]): 131.43 U/L; Activity (Mus musculus [31]): 9.92%; Activity (Mus musculus [32]): Non-toxic; Cmax [33]: 465 ng/mL; Activity (Mus musculus [34]): 56.2%; Activity (Mus musculus [35]): 15.08%; Activity (Mus musculus [36]): 18.18%; Activity (Mus musculus [37]): 16.8%; Activity (Mus musculus [38]): 0.17 mM; solubility [39]: 3280 µg/mL; clearance [40]: 47.1 mL/min/kg; Activity (Mus musculus [41]): 24 U/L; Activity (Mus musculus [42]): 7.76 mM
